From ChEMBL document CHEMBL3286127, “Aminoadamantanes with persistent in vitro efficacy against H1N1 (2009) influenza A” (J Med Chem, 2014)

Experiments:
[1] = tested on: Influenza A virus; experiment: Antiviral activity against Influenza A virus (A/Puerto Rico/8/34(H1N1)) infected in MDCK cells expressing M2 V27T/S31N mutant after overnight incubation by fluorescence-based miniplaque assay; assay type: functional, organism-based, A/Puerto Rico/8/1934(H1N1)
[2] = Antiviral activity against Influenza A virus (A/California/07/2009(H1N1)) infected in MDCK cells expressing M2 S31N mutant after overnight incubation by fluorescence-based miniplaque assay; assay type: functional, cell-based
[3] = tested on: Influenza A virus; experiment: Antiviral activity against Influenza A virus A/WS/33(H1N1) infected in MDCK cells expressing M2 S31N mutant after overnight incubation by fluorescence-based miniplaque assay; assay type: functional, organism-based
[4] = tested on: Matrix protein 2 (Influenza A virus (A/Udorn/307/1972(H3N2))), P0DOF8 [S31N]; assay type: cell-based; settings: Influenza A virus (A/California/08/2009(H1N1)); HEK293; 100 uM

Compound | EC50 [1] [µM] | EC50 [2] [µM] | EC50 [3] [µM] | Activity [4] [%]
NC12CC3CC(CC(C3)C1)C2 [AMANTADINE] | 24 | 240 | 24 | –
CC(N)C12CC3CC(CC(C3)C1)C2 (stereo not given) [RIMANTADINE] | 3.3 | 110 | 310 | –
CCCCCCC1(N)C2CC3CC(C2)CC1C3 (stereo not given) | 0.07 | 0.13 | 13 | –
CCC1(N)C2CC3CC(C2)CC1C3 (stereo not given) | 1.8 | 25 | 23 | –
NC1(c2ccccc2)C2CC3CC(C2)CC1C3 (stereo not given) | < 0.3 | 21 | 86 | –
NC1C2CC3CC(C2)CC1C3 (stereo not given) | 3.8 | 150 | 110 | 16
NC1(Cc2ccccc2)C2CC3CC(C2)CC1C3 (stereo not given) | 1.2 | 8.6 | 280 | –
CC1(N)C2CC3CC(C2)CC1C3 (stereo not given) | 0.4 | 54 | 19 | –
CCCC1(N)C2CC3CC(C2)CC1C3 (stereo not given) | 0.5 | 4.7 | 390 | 9.4
CCCCC1(N)C2CC3CC(C2)CC1C3 (stereo not given) | 0.3 | 8.5 | 355 | –
CC(C)CC1(N)C2CC3CC(C2)CC1C3 (stereo not given) | 0.3 | 8 | 210 | –
